Values of other authors, collected in US20180103657A1, “FROZEN CONFECTION” (Conopco, Inc., d/b/a UNILEVER, priority 2015, published 2018).

Details: partition coefficient at 20 degrees centigrade

- Log P [flavour compounds]: 1.8
SMILES: CCCC(=O)OCC [Ethyl butyrate]
